Reference: ChEMBL document CHEMBL5055678, “Structure-based drug design of novel and highly potent pyruvate dehydrogenase kinase inhibitors” (Bioorg Med Chem, 2021)

Columns and labels:
[1] = biological target: [Pyruvate dehydrogenase (acetyl-transferring)] kinase isozyme 2, mitochondrial (Homo sapiens, UniProt Q15119); test: Inhibition of human recombinant PDHK2 co-complexed with porcine PDH using sodium pyruvate, coenzymeA and NAD as substrates preincubated with enzyme complex for 45 mins followed by substrates addition and further incubated for 90 mins in presence of ATP at Km concentration by spectrophotometric assay
[2] = biological target: T1, [Pyruvate dehydrogenase (acetyl-transferring)] kinase isozyme 4, mitochondrial (Homo sapiens, UniProt Q16654); test: (§1) Inhibition of human recombinant PDHK4 co-complexed with porcine PDH using sodium pyruvate, coenzymeA and NAD as substrates preincubated with enzyme complex for 45 mins followed by substrates addition and further incubated for 90 mins in presence of ATP at Km concentration by spectrophotometric assay
Target sequence in this assay (Q16654 whole entry): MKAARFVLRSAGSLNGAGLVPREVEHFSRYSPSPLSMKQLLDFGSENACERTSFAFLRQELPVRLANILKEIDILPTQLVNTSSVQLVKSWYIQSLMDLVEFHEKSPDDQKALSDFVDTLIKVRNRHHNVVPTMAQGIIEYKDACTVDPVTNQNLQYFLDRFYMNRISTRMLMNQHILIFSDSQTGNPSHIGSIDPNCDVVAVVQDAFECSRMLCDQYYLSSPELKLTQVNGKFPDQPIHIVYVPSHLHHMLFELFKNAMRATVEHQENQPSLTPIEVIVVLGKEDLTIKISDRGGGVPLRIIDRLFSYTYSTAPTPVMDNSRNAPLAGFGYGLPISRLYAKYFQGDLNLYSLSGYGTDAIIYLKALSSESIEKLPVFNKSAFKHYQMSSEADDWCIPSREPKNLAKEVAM

[3] = biological target: T2, Branched-chain alpha-ketoacid dehydrogenase kinase (Homo sapiens, UniProt O14874); test: Inhibition of human recombinant BCKDK incubated for 60 mins in presence of ATP by ADP-Glo reagent based luminescent assay
[4] = biological target: T2, Branched-chain alpha-ketoacid dehydrogenase kinase; test: Inhibition of human recombinant BCKDK at >100 uM incubated for 60 mins in presence of ATP by ADP-Glo reagent based luminescent assay relative to control
[5] = biological target: T1, [Pyruvate dehydrogenase (acetyl-transferring)] kinase isozyme 4, mitochondrial; test: as §1, with “porcine PDH at 30 uM using sodium” for “porcine PDH using sodium”, “spectrophotometric assay relative to control” for “spectrophotometric assay”; settings: time 135.0 min
Target sequence in this assay (Q16654 whole entry, looked up): as the sequence (Q16654 whole entry) above

[6] = biological target: [Pyruvate dehydrogenase (acetyl-transferring)] kinase isozyme 1, mitochondrial (Homo sapiens, UniProt Q15118); test: Inhibition of human recombinant PDHK1 co-complexed with porcine PDH using sodium pyruvate, coenzymeA and NAD as substrates preincubated with enzyme complex for 45 mins followed by substrates addition and further incubated for 90 mins by spectrophotometric assay
Chain of [Pyruvate dehydrogenase (acetyl-transferring)] kinase isozyme 1, mitochondrial (Q15118 whole entry): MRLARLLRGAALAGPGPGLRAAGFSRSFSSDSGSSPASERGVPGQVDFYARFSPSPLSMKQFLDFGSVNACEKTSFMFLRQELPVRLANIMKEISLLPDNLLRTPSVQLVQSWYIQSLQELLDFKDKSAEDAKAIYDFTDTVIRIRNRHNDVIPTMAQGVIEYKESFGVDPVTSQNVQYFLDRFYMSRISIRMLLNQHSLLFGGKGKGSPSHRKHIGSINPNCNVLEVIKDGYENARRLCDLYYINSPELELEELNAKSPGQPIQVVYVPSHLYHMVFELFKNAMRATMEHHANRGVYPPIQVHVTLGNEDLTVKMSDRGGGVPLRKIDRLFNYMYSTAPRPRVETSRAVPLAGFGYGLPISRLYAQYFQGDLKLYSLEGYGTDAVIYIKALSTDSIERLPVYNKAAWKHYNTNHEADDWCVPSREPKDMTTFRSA

Structure (SMILES) | IC50 [1] [nM] | IC50 [2] [nM] | IC50 [3] [nM] | inhibition [4] [%] | inhibition [5] [%] | IC50 [6] [nM]
Cc1nc(N2C[C@H](c3ccccc3)C[C@H]2CO)c2c(n1)[nH]c1c(C3CC3)cccc12 | 1010 | 7700 | – | – | – | –
CC[C@@H]1C[C@H](c2ccc(C(=O)O)[nH]2)CN1c1nc(C)nc2[nH]c3c(C4CC4)cccc3c12 | 9.2 | 40.6 | – | – | – | –
Cc1ccc2c(n1)[nH]c1c(C3CC3)cccc12 | 2030 | 11900 | – | – | – | –
Cc1nc2[nH]c3c(C4CC4)cccc3c2cc1-c1nnc([C@@H](CC(=O)N[C@H](C)c2ccccc2)C(C)C)o1 | 17.1 | 61.5 | – | – | – | –
Cc1nc(N2C[C@](CO)(Cc3ccccc3)C[C@H]2CO)c2c(n1)[nH]c1c(C3CC3)cccc12 | 14.6 | 292 | – | – | – | –
Cc1cnc(Cl)nc1-c1ccc(N(Cc2ccccc2)C(=O)c2ccc(O)cc2O)cc1 | 35 | 350 | – | – | – | –
Cc1nc(N2C[C@H](Cc3ccccc3)C[C@H]2CO)c2c(n1)[nH]c1c(C3CC3)cccc12 | 73 | 1120 | – | – | – | –
Cc1nc(N2CCC[C@@H]2CO)c2c(n1)[nH]c1c(C3CC3)cccc12 | 8520 | > 30000 | – | – | 21 | –
Cc1ncc2c(n1)[nH]c1c(C3CC3)cccc12 | 710 | – | > 300000 | – | – | 5870
Cc1nc(N2C[C@@H](c3ccc(C(=O)O)[nH]3)C[C@H]2CO)c2c(n1)[nH]c1c(C3CC3)cccc12 | 5.1 | 12.2 | – | – | – | –
CCC1CCCN1c1nc(C)nc2[nH]c3c(C4CC4)cccc3c12 (stereo not drawn) | 758 | 8460 | – | – | – | –
Cc1nc(N2C[C@@](Cc3ccccc3)(C(N)=O)C[C@H]2CO)c2c(n1)[nH]c1c(C3CC3)cccc12 | 4.5 | 260 | – | – | – | –
CNC(=O)c1cc2c(nc1C)[nH]c1c(C3CC3)cccc12 | 5510 | > 30000 | – | – | 35 | –
Cc1nc(N2C[C@@H](c3ccc(C(N)=O)[nH]3)C[C@H]2CO)c2c(n1)[nH]c1c(C3CC3)cccc12 | 5.5 | 17.8 | – | – | – | –
Cc1nc(N2CCC[C@H]2CO)c2c(n1)[nH]c1c(C3CC3)cccc12 | 352 | 4530 | – | – | – | –
COC(=O)c1cc2c(nc1C)[nH]c1c(C3CC3)cccc12 | 210 | 1540 | – | – | – | –
Cc1nc(N2CCCC2)c2c(n1)[nH]c1c(C3CC3)cccc12 | 2410 | 10300 | – | – | – | –

Further lines, results first:

IC50 [1] [nM] | IC50 [2] [nM] | IC50 [3] [nM] | inhibition [4] [%] | inhibition [5] [%] | IC50 [6] [nM] | Structure (SMILES)
4.2 | 24.1 | > 100000 | 3 | – | – | Cc1nc2[nH]c3c(C4CC4)cccc3c2cc1-c1nnc(C(NC(=O)CCc2ccccc2)C(C)C)o1 (stereo not drawn)
91 | 292 | – | – | – | – | CCCc1nnc(-c2cc3c(nc2C)[nH]c2c(C4CC4)cccc23)o1
87 | 494 | – | – | – | – | Cc1nc2[nH]c3c(C4CC4)cccc3c2cc1-c1nnc(C(C)C(C)C)o1 (stereo not drawn)
190 | 2120 | – | – | – | – | CCc1nnc(-c2cc3c(nc2C)[nH]c2c(C4CC4)cccc23)o1
6 | 32.9 | > 100000 | 18 | – | – | Cc1nc2[nH]c3c(C4CC4)cccc3c2cc1-c1nnc(C(CC(=O)NCc2ccccc2)C(C)C)o1 (stereo not drawn)
490 | 1510 | – | – | – | – | Cc1nnc(-c2cc3c(nc2C)[nH]c2c(C4CC4)cccc23)o1
130 | 592 | – | – | – | – | Cc1nc2[nH]c3c(C4CC4)cccc3c2cc1-c1nnc(C(C)C)o1
56 | 462 | – | – | – | – | Cc1nc2[nH]c3c(C4CC4)cccc3c2cc1-c1nnc(CC(C)C)o1
5330 | 7490 | – | – | – | – | Cc1nc2[nH]c3c(C4CC4)cccc3c2cc1-c1ccccc1
1510 | 2980 | – | – | – | – | Cc1nc2[nH]c3c(C4CC4)cccc3c2cc1-c1ccccn1
1490 | 6620 | – | – | – | – | CCc1nnc(-c2cc3c(nc2C)[nH]c2c(C4CC4)cccc23)s1
